{
  "source": "patent US7718669B2",
  "about": "“Triazolopyridine derivatives as inhibitors of lipases and phospholipases” (Sanofi-Aventis, priority 2005, dated 2010)",
  "data": [
    {"target": "T1, endothelial lipase (EL) (Homo sapiens, UniProt Q9Y5X9)", "T1 construct": "made in house; host or cells: recombinant CHO or HEK293 cell lines; concentrated conditioned medium", "T1 sequence (Q9Y5X9 21-500)": "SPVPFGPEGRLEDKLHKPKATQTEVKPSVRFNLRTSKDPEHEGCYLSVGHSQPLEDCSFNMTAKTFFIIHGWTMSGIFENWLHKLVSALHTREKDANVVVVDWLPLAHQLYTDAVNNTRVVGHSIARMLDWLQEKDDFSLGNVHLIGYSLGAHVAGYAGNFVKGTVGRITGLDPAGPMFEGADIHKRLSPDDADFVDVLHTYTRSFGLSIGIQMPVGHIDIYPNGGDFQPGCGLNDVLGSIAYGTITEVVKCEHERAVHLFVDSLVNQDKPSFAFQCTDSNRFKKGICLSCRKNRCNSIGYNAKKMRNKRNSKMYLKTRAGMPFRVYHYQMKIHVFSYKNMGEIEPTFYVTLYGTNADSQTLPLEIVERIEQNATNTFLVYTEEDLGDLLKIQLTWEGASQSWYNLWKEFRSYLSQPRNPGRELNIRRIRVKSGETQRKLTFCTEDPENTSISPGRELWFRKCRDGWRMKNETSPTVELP", "experiment": "EL inhibition assay", "type": "biochemical", "conditions": "EL from conditioned medium of recombinant cell lines (CHO, HEK293); Bodipy phospholipid substrate; 37° C. for 60 minutes", "from_the_text": "EL is released as secretory protein in high concentration into cell culture medium (conditioned medium) by recombinant cell lines (CHO, HEK293). This is employed as enzyme solution after concentration.\nThe phospholipase-specific substrate 1,2-bis(4,4-difluoro-5,7-dimethyl-4-bora-3a,4a-diaza-s-indacene-3-undecanoyl)-sn-glycero-3-phosphocholine, (manufacturer Molecular Probes) is used to characterize the enzymatic activity of endothelial lipase and the effect of inhibitors. Hydrolysis of the A1 ester linkage of this phospholipid by the enzyme liberates the fluorescent dye Bodipy which can be detected after separation by thin-layer chromatography on an HPTLC plate (silica gel 60, Merck) or directly in the reaction vessel by measuring the fluorescence. The substrate solution is prepared by taking up 100 μg of 1,2-bis(4,4-difluoro-5,7-dimethyl-4-bora-3a,4a-diaza-s-indacene-3-undecanoyl)-sn-glycero-3-phospho-choline (manufacturer Molecular Probes), 2.4 mg of tripalmitin (Sigma) and 7.9 mg of DOP-choline (1,2-dioleoyl-sn-glycero-3-phosphocholine) in 393 μl of chloroform and then transferring 157 μl into a fresh reaction vessel. After evaporation of the solvent, the lipid mixture is dissolved in 4 ml of 200 mM TRIS-HCl, 150 mM sodium chloride, pH=7.4, by sonication twice. The subsequent enzymic reaction takes place at 37° C. for 60 minutes. For this purpose, 45 μl of the substrate solution are incubated with 1 μl of inhibitor of appropriate concentration (dissolved in DMSO, pure DMSO solution is used as control) and 5 μl of enzyme solution (conditioned medium). Then 3 μl of the assay mixture are loaded onto an HPTLC plate (silica gel 60, Merck), and the liberated fluorescent dye is separated for detection with an eluent (diethyl ether:petroleum benzene:acetic acid [78:22:1]). After evaporation of the eluent, the plate is read in a fluorescence scanner. An increased release of the fluorescent dye in the uninhibited reaction is to be observed as a measure of the enzymic activity.\nThe enzymatic activity is reduced as a function of the inhibitor concentration used, and the inhibitor concentration at which a half-maximum enzymic activity is observed is called IC50.", "units": {"IC50": "µM"}, "values": [
      {"smiles": "Cc1ccccc1CNC(=O)n1nnc2nc(Cl)ccc21", "note": "[Example 54]", "IC50": 0.74},
      {"smiles": "Cc1ccccc1CNC(=O)n1nnc2ncc(Cl)cc21", "note": "[Example 55]", "IC50": 0.58},
      {"smiles": "CCCCCCNC(=O)n1nnc2nc(Cl)ccc21", "note": "[Example 56]", "IC50": 0.04},
      {"smiles": "Cc1ccccc1CNC(=O)n1nnc2cc(Cl)cnc21", "note": "[Example 68]", "IC50": 1.24}
    ]},
    {"target": "T2, hormone sensitive lipase, HSL (Rattus norvegicus, UniProt P15304)", "T2 construct": "Isolated rat fat cells are obtained from epididymal adipose tissue; from tissue; host or cells: fat cells from epididymal adipose tissue of male Wistar rats", "T2 sequence (P15304 301-1068 limits assumed)": "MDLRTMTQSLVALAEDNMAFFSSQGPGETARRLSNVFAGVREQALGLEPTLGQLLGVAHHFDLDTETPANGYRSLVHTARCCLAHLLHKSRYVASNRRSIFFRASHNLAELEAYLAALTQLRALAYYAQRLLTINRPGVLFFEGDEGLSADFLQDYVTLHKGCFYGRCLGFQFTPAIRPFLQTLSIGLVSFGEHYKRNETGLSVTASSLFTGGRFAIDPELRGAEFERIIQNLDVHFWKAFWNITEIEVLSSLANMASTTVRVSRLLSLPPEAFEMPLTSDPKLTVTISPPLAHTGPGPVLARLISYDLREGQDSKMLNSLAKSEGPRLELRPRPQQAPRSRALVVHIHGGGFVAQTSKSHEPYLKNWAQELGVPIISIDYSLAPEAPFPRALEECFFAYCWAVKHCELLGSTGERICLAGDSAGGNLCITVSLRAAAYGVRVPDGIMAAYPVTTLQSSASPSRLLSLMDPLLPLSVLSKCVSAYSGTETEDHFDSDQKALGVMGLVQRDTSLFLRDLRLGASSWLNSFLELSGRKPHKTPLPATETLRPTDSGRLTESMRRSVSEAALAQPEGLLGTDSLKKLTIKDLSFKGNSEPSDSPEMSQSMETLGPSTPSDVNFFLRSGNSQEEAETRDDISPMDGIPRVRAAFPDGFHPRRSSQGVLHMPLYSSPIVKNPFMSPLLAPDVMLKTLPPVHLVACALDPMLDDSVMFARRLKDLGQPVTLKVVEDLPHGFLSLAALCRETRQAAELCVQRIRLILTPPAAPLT", "experiment": "HSL inhibition assay", "type": "biochemical", "conditions": "partially purified HSL from rat fat cells; [3H]trioleoylglycerol substrate; 37° C. for 30 min", "experimental": "Preparation of the Partially Purified HSL:\nIsolated rat fat cells are obtained from epididymal adipose tissue from untreated male rats (Wistar, 220-250 g) by collagenase treatment in accordance with published methods (e.g. S, Nilsson et al., Anal. Biochem. 158, 1986, 399-407; G. Fredrikson et al., J. Biol. Chem. 256, 1981, 6311-6320; H. Tornquist et al., J. Biol. Chem. 251, 1976, 813-819). The fat cells from 10 rats are washed three times by flotation with 50 ml of homogenization buffer ([…] Tris/HCl, pH 7.4, 0.25 M sucrose, 1 mM ETDA, 1 mM DTT, 10 μg/ml leupeptin, 10 μg/ml antipain, 20 μg/ml pepstatin) each time and finally taken up in 10 ml of homogenization buffer. The fat cells are homogenized in a Teflon-in-glass homogenizer (Braun-Melsungen) by 10 strokes at 1500 rpm and 15° C. The homogenate is centrifuged (Sorvall SM24 tubes, 5000 rpm, 10 min, 4° C.). The subnatant between the layer of fat at the top and the pellet is removed and the centrifugation is repeated. The subnatant resulting therefrom is centrifuged again (Sorvall SM24 tubes, 20 000 rpm, 45 min, 4° C.). […] After incubation at 4° C. for 60 min (shaking at intervals of 15 min), the mixture is centrifuged (Sorvall SM24 tubes, 3000 rpm, 10 min, 4° C.). The supernatant is adjusted to pH 5.2 by adding glacial acetic acid and is incubated at 4° C. for 30 min. The precipitates are collected by centrifugation (Sorvall SS34, 12 000 rpm, 10 min, 4° C.) and suspended in 2.5 ml of 20 mM Tris/HCl, pH 7.0, 1 mM EDTA, 65 mM NaCl, 13% sucrose, 1 mM DTT, 10 μg/ml leupeptin/pepstatin/antipain. The suspension is dialyzed against 25 mM Tris/HCl, pH 7.4, 50% glycerol, 1 mM DTT, 10 μg/ml leupeptin, pepstatin, antipain at 4° C. overnight and then loaded onto a hydroxiapatite column (0.1 g per 1 ml of suspension, equilibrated with 10 mM potassium phosphate, pH 7.0, 30% glycerol, 1 mM DTT). The column is washed with four volumes of equilibration buffer at a flow rate of 20 to 30 ml/h. The HSL is eluted with one volume of equilibration buffer containing 0.5 M potassium phosphate and then dialyzed (see above) and concentrated 5- to 10-fold by ultrafiltration (Amicon Diaflo PM 10 Filter) at 4° C. The partially purified HSL can be stored at −70° C. for 4 to 6 weeks.\nTo prepare the substrate, 25-50 μCi of [3H]trioleoylglycerol (in toluene), 6.8 μmol of unlabeled trioleoylglycerol and 0.6 mg of phospholipids (phosphatidylcholine/phosphatidylinositol 3:1 w/v) are mixed, dried with N2 and then taken up in 2 ml of 0.1 M KPi (pH 7.0) by ultrasound treatment (Branson 250, microtip, setting 1-2, 2×1 min with an interval of 1 min). After addition of 1 ml of KPi and renewed ultrasound treatment (4×30 sec on ice with intervals of 30 sec), 1 ml of 20% BSA (in KPi) is added (final concentration of trioleoylglycerol 1.7 mM). For the reaction, 100 μl of substrate solution are pipetted into 100 μl of HSL solution (HSL prepared as above, diluted in 20 mM KPi, pH 7.0, 1 mM EDTA, 1 mM DTT, 0.02% BSA, 20 μg/ml pepstatin, 10 μg/ml leupeptin) and incubated at 37° C. for 30 min. Addition of 3.25 ml of methanol/chloroform/heptane (10:9:7) and of 1.05 ml of 0.1 M K2CO3, 0.1 M boric acid (pH 10.5) is followed by thorough mixing and finally centrifugation (800×g, 20 min). After phase separation, one equivalent of the upper phase (1 ml) is removed and the radioactivity is determined by liquid scintillation measurement.\nSubstances are normally tested in four independent mixtures. The inhibition of the HSL enzymatic activity by a test substance is determined by comparing with an uninhibited control reaction. The IC50 is calculated from an inhibition plot with at least 10 concentrations of the test substance. The GRAPHIT, Elsevier-BIOSOFT software package is used to analyze the data.", "units": {"IC50": "µM"}, "values": [
      {"smiles": "CC1CCN(C(=O)n2nnc3nc(Cl)ccc32)CC1", "note": "[Example 1, (5-Chloro-[1,2,3]triazolo[4,5-b]pyridin-1-yl)-(4-methylpiperidin-1-yl)-methanone]", "IC50": 0.5},
      {"smiles": "O=C(N1CCc2ccccc2C1)n1nnc2ncccc21", "note": "[Example 4]", "IC50": 0.07},
      {"smiles": "CC1CCN(C(=O)n2nnc3ncc(Cl)cc32)CC1", "note": "[Example 5, (6-Chloro-[1,2,3]triazolo[4,5-b]pyridin-1-yl)-(4-methyl-piperidin-1-yl)-methanone]", "IC50": 0.3},
      {"smiles": "Cc1cccc(C)c1N1CCN(C(=O)n2nnc3ncccc32)CC1", "note": "[Example 14]", "IC50": 0.607},
      {"smiles": "COC(=O)c1ccc(C2CCN(C(=O)n3nnc4ncccc43)CC2)cc1", "note": "[Example 23]", "IC50": 0.45},
      {"smiles": "CCCCCN(CCCCC)C(=O)n1nnc2ncccc21", "note": "[Example 24]", "IC50": 0.175},
      {"smiles": "Cc1ccccc1N1CCN(C(=O)n2nnc3ncccc32)CC1", "note": "[Example 25]", "IC50": 0.215},
      {"smiles": "O=C(N1CCN(c2ccc(-c3ccccc3)cc2)CC1)n1nnc2ncccc21", "note": "[Example 26]", "IC50": 0.198},
      {"smiles": "CC1CC(C)CN(C(=O)n2nnc3ncccc32)C1", "note": "(centres unmarked) [Example 30]", "IC50": 0.585},
      {"smiles": "CCCC1CCN(C(=O)n2nnc3ncccc32)CC1", "note": "[Example 31]", "IC50": 0.136},
      {"smiles": "O=C(N1CCC(c2ccc3ccccc3c2)CC1)n1nnc2ncccc21", "note": "[Example 33]", "IC50": 0.112},
      {"smiles": "O=C(C1CCC2(CC1)CCN(c1ccccc1)C2=O)n1nnc2ncccc21", "note": "(centres unmarked) [Example 35]", "IC50": 0.78},
      {"smiles": "CCOc1ccc(N2CCN(C(=O)n3nnc4ncccc43)CC2)cc1", "note": "[Example 37]", "IC50": 0.576},
      {"smiles": "O=C(N1CCN(c2ccc(OCc3ccccc3)cc2)CC1)n1nnc2ncccc21", "note": "[Example 41]", "IC50": 0.062},
      {"smiles": "Nc1ccc(C2CCN(C(=O)n3nnc4ncccc43)CC2)cc1", "note": "[Example 42]", "IC50": 0.159},
      {"smiles": "O=C(N1CCC(c2ccccc2F)CC1)n1nnc2ncccc21", "note": "[Example 43]", "IC50": 0.763},
      {"smiles": "O=C(N1CCC(CCc2ccccc2)CC1)n1nnc2ncccc21", "note": "[Example 48]", "IC50": 0.662},
      {"smiles": "CC1(C)CCCN(C(=O)n2nnc3ncccc32)C1", "note": "[Example 50]", "IC50": 0.367},
      {"smiles": "CCCCCCCCN1CCN(C(=O)n2nnc3ncccc32)CC1", "note": "[Example 51]", "IC50": 0.237},
      {"smiles": "O=C(N1CCC(c2cccc(C(F)(F)F)c2)CC1)n1nnc2ncccc21", "note": "[Example 53]", "IC50": 0.826},
      {"smiles": "CC1CCN(C(=O)n2nnc3ccc(Cl)nc32)CC1", "note": "[Example 61, (5-chloro-[1,2,3]triazolo[4,5-b]pyridin-3-yl)-(4-methylpiperidin-1-yl)-methanone]", "IC50": 0.03},
      {"smiles": "CC1CCN(C(=O)n2nnc3cccnc32)CC1", "note": "[Example 62]", "IC50": 0.16},
      {"smiles": "CC1CCCN(C(=O)n2nnc3cccnc32)C1", "note": "(centres unmarked) [Example 63]", "IC50": 0.965},
      {"smiles": "O=C(N1CCc2ccccc2C1)n1nnc2cccnc21", "note": "[Example 64]", "IC50": 0.03},
      {"smiles": "O=C(N1CCc2ccccc2C1)n1nnc2ccc(Cl)nc21", "note": "[Example 66, (5-chloro-[1,2,3]triazolo[4,5-b]pyridin-3-yl)-(3,4-dihydro-1H-isoquinolin-2-yl)-methanone]", "IC50": 0.15}
    ]}
  ]
}
